Measurements: US20260109727A1, “RNA CONSTRUCTS AND USES THEREOF” (BioNTech SE, priority 2022, published 2026)

Experiments:
BALB/c mice [1] = experiment: Plasma EPO in mice IV injected with 3 μg TransIT-complexed EPO mRNA (ELISA); assay type: in vivo
Procedure: (§1) To confirm in vitro data, female BALB/c mice from Jackson Laboratory (Bar Harbor, ME, USA) at the age of eight to ten weeks were used for in vivo experiment in accordance with federal policies on animal research (Ethics approval number: G18-12-027). Mice (n=3/group) were injected intravenously (i.v.) with 3 μg TransIT-complexed (Mirus Bio) EPO mRNAs in a final volume of 200 μL Dulbecco's modified Eagle medium (DMEM). Mice used as controls were injected with TransIT-reagent diluted in DMEM but without RNA. Mice were injected with EPO mRNA complexed with TransIT-reagent and EPO levels in plasma were measured using ELISA (FIG. 8A). Hematocrit was measured from 18 μl of blood that was collected at the indicated times using centrifugation in Drummond microcaps glass capillary tubes (20 μl volume, Merck, Germany) as described (20) (FIG. 8B). After determination of the hematocrit, capillary tubes were snapped open, and the plasma was collected to measure EPO levels and analyzed for mouse Erythropoietin DuoSet ELISA kit (R&D Systems) according to the manufacturer's instructions. […] EPO RNA containing m1Ψ translated two-fold more than U-containing mRNA at each time points (FIG. 8A). Both compound I′-1 and compound I′-6 are suitable for translation of the encoded protein and each cap analog can be used for synthesizing of non-replicating functional mRNAs (FIG. 8A, 8B).
(§2) In each in vivo experiment in order to measure the translational efficiency and to determine the functionality of EPO mRNA capped with I′-1, I′-2, I′-3, I′-5, I′-6, I′-9, I′-12, I′-13, I′-16, CC114, and CC413 in vivo, female BALB/c mice from Jackson Laboratory (Bar Harbor, ME, USA) at the age of eight to ten weeks were used for in accordance with federal policies on animal research (Ethics approval number: G19-12-074). In each case, mice (n=3/group) were injected intravenously (i.v.) with 3 μg TransIT-complexed (Mirus Bio) EPO mRNAs in a final volume of 200 μL Dulbecco's modified Eagle medium (DMEM). Mice used as controls were injected with TransIT-reagent diluted in DMEM but without RNA. To measure hematocrits and EPO levels in the individual mice that were injected with EPO mRNA capped with I′-6, I′-1, CC114, and CC413 and complexed with TransIT-reagent, 18 μL of blood was collected at the indicated times (FIG. 8B) and centrifuged in Drummond microcaps glass capillary tubes (20 μl volume, Merck, Germany) as described (19). After determination of the hematocrit, capillary tubes were snapped open, and the plasma was collected to measure EPO levels and analyzed for mouse Erythropoietin DuoSet ELISA kit (R&D Systems) according to the manufacturer's instructions. […] EPO RNA containing m1Ψ modifications translated 2-3-fold, 5-fold, and 10-fold more than U-containing mRNAs at 6-24, 48 and 72 hours after injections, respectively. (FIG. 8A). […] To address translation of I′-6-capped mRNA in human primary hepatocytes, EPO level was measured from supernatants transfected using 0.1 μg/well TransIT-formulated I′-6- or CC114-capped uRNA (FIG. 13).
To this end, we generated U-containing as well as m1Ψ-modified EPO RNA capped with cap analogs which belong to either the non-ARCA (I′-13) or ARCA (I′-6) classes. Moreover, the latter ones contain 2′-OMe (I′-5) or 3′-OMe (I′-6) at the ribose of the m7G moiety. Three μg of TransIT-complexed EPO mRNA capped with nucleoside modification-containing NeoCaps I′-13, I′-5 and I′-6 cap analogs were injected into mice intravenously. After that EPO level of plasma collected from mice was measured at 6, 24 and 48 hours after administration to compare the translational activity of mRNA capped with NeoCaps with U-containing or m1Ψ-modified mRNA capped with non-modified ARCA 3′OMe I′-1.
Plasma EPO level of mice injected with 3 μg of each TransIT-complexed mRNA was determined using murine EPO-specific ELISA at 6, 24, 48 and 72 hours after intravenous administration. […]

BALB/c mice [2] = experiment: Hematocrit in mice IV injected with 3 μg TransIT-complexed EPO mRNA; assay type: in vivo; conditions: D14 after injection
Procedure: as §1, §2

human PBMCs [3] = experiment: Cytokine/chemokine secretion in human PBMCs (MSD V-PLEX); assay type: cell-based; conditions: for proinflammatory cytokine/chemokine responses compared to m1Ψ-modified mRNA: lipid-complexed U-containing mRNA, even at lowest dose 0.5 μg/ml
Procedure: Human buffy coats from healthy individuals were obtained from the Faculty of Medicine of Johannes Gutenberg University, Mainz and used to isolate peripheral blood mononuclear cells (PBMCs) on a Ficoll-Paque™ PLUS (Cytiva, Marlborough, MA, USA) density gradient. In preparation for mRNA transfection, cryopreserved PBMCs were thawed and seeded into 96-well plates at a density of 5×10^5 cells per well in 190 μL RPMI medium supplemented with 1% non-essential amino acids (NEAA), 1% sodium pyruvate and 10% Fetal Bovine Serum (Merck, Germany). Cells were maintained at 37° C. with 5% CO2 until transfection with 0.5, 1.5, 5.0 and 15 μg/ml lipoplex-formulated EPO mRNA (LPX-RNA), as described in Kranz, L. M., et al. (2016) Nature, 534, 396-401. The complexed RNA (10 μl per well) was added in triplicates and supernatants were collected at 24 h after transfection to perform single cell cytotoxicity assay and to measure the cytokine/chemokine profile. To determine the cell viability and the production of selected cytokines/chemokines, supernatants from human PBMCs transfected with LPX-RNA were subjected to XTT cytotoxicity test using Cell Proliferation Kit II (Sigma-Aldrich) and cytokine/chemokine profile analysis using the Meso Scale Discovery V-PLEX Custom Human Biomarkers Proinflammatory and Chemokine Panel (Meso Scale Diagnostics—MSD, Rockville, MD, USA) according to the manufacturer's instructions, respectively. In regards of cytokine/chemokine profile analysis, a sample dilution of 1:5 (supernatant:MSD diluent) was used in each experiment. The levels of IL-6 (Interleukin 6), TNF-α (Tumor necrosis factor alpha), IL-1 (Interleukin 1 beta), IFN-γ (Interferon gamma), MCP-1 (Monocyte Chemoattractant Protein-1), […] (Macrophage inflammatory protein 1 beta) and IL-10 (Interleukin 10) were quantified 24 h after the mRNA transfection. […] This low immunogenicity can be directly attributed to the nucleoside modifications incorporated into the mRNA. To illustrate this, cells treated with lipid-complexed U-containing mRNA capped with compound I′-1, CC114 and CC413 induced much higher proinflammatory cytokine/chemokine responses even at their lowest dose (0.5 μg/ml) when compared to m1Ψ-modified mRNA (FIG. 6).
To test the effect of the cap types and mRNA 5′end on immunogenicity in human peripheral blood monocyte cells (PBMCs) we compared changes in levels of cytokines and chemokines after application of Lipoplex (LPX)-formulated EPO mRNAs. First, we compared the impact of m1Ψ-mRNA capped with I′-6 containing a UAGU 5′end vs. CC413 (AGAAU 5′end) (FIG. 12). […] Second, we compared capped EPO uRNA with I′-6 or I′-1 (FIG. 14). In this case both mRNAs had the same TAGT 5′end. […] Thus, benefit of I′-6 in decreasing the immunogenicity and thus increasing safety was found when I′-6 was used.

[4] = system: human primary hepatocytes; experiment: EPO secretion in human primary hepatocytes transfected with TransIT-EPO mRNA (ELISA); assay type: cell-based
Procedure: To measure the translational efficiency of EPO mRNA capped with compound I′-1, compound I′-6, CC114, and CC413 in vitro, human primary hepatocytes were seeded into 96-well plates at a density of 2.5×10^4 cells per well and were transfected with mRNA samples (0.1 μg) complexed with TransIT reagent (Mirus Bio, Madison, WI, USA) in a final volume of 200 μL in InVitroGRO CP Medium (Sigma-Aldrich) supplemented with Thorpedo Antibiotic Mix (Sigma-Aldrich). To quantify EPO levels, the supernatant was collected at 1, 2, 3, 4, 5 and 6 day after transfection and EPO levels were analyzed by mouse Erythropoietin DuoSet ELISA kit (R&D Systems, Minneapolis, MN, USA) according to the manufacturer's instructions.
as §2
To test if various uridine (U) or pseudouridine (Ψ) derivatives of cap analogues can improve translation in human primary hepatocytes, we first measured EPO secretion after application of EPO-encoding Ψ-mRNA capped with compounds described herein analog bearing pseudouridine (I′-3) or CC413 (no modification). […] In addition, all tested modification bearing caps led to increase in EPO secretion at 24 h and 48 h when compared to the unmodified I′-1 (FIG. 16).

human PBMCs [5] = experiment: XTT cytotoxicity test of PBMCs transfected with LPX-formulated EPO mRNA; assay type: cell-based; conditions: 24 h, up to 1 μg/well mRNA
Procedure: Human buffy coats from healthy individuals were obtained from the Faculty of Medicine of Johannes Gutenberg University, Mainz and used to isolate peripheral blood mononuclear cells (PBMCs) on a Ficoll-Paque™ PLUS (Cytiva, Marlborough, MA, USA) density gradient. In preparation for mRNA transfection, cryopreserved PBMCs were thawed and seeded into 96-well plates at a density of 5×10^5 cells per well in 190 μL RPMI medium supplemented with 1% non-essential amino acids (NEAA), 1% sodium pyruvate and 10% Fetal Bovine Serum (Merck, Germany). Cells were maintained at 37° C. with 5% CO2 until transfection with 0.5, 1.5, 5.0 and 15 μg/ml lipoplex-formulated EPO mRNA (LPX-RNA), as described in Kranz, L. M., et al. (2016) Nature, 534, 396-401. The complexed RNA (10 μl per well) was added in triplicates and supernatants were collected at 24 h after transfection to perform single cell cytotoxicity assay and to measure the cytokine/chemokine profile. […] The levels of IL-6 (Interleukin 6), TNF-α (Tumor necrosis factor alpha), IL-1 (Interleukin 1 beta), IFN-γ (Interferon gamma), MCP-1 (Monocyte Chemoattractant Protein-1), […] (Macrophage inflammatory protein 1 beta) and IL-10 (Interleukin 10) were quantified 24 h after the mRNA transfection. […]

## COC1C(OP(=O)(O)OC[C@H]2O[C@@H](c3cn(C)c(=O)[nH]c3=O)C(O)C2O)[C@@H](COP(=O)(O)OP(=O)([O-])OP(=O)(O)OC[C@H]2O[C@@H](n3c[n+](C)c4c(O)nc(N)nc43)C(O)C2O)O[C@H]1n1cnc2c(N)ncnc21 (stereo partly drawn) [I′-13, m^7GpppA(2′-OMe)pm^1Ψ]
BALB/c mice [1]; 6 h after injection
  translation of m1Ψ-mRNA capped with I′-13 relative to U-mRNA capped with CC114: 8 fold
BALB/c mice [1]; 24 h after injection
  translation of m1Ψ-mRNA capped with I′-13 relative to U-mRNA capped with CC114: 25 fold
BALB/c mice [1]; each tested time point (6, 24, 48 h), regardless of the mRNA modification
  translation compared to mRNA capped with non-modified ARCA cap: at least two-fold better

## (m^7)Gppp(m^2′-O)ApU [CC114, reference compound]
BALB/c mice [2]
  decrease of hematocrit values from D14: started to decrease at D14
Human PBMCs [3]
  proinflammatory cytokine/chemokine responses compared to m1Ψ-modified mRNA: much higher

## COC1C(OP(=O)(O)OC[C@H]2O[C@@H](c3c[nH]c(=O)[nH]c3=O)C(O)C2O)[C@@H](COP(=O)(O)OP(=O)([O-])OP(=O)(O)OC[C@H]2O[C@@H](n3c[n+](C)c4c(O)nc(N)nc43)C(O)C2OC)O[C@H]1n1cnc2c(N)ncnc21 (stereo partly drawn) [I′-3, m^7G(^3′-OMe)pppA(2′-OMe)pΨ]
[4]; EPO-encoding Ψ-mRNA, 24 h and 48 h
  level of EPO compared to CC413: higher
BALB/c mice [1]; m1Ψ-modified mRNA, 48 and 72 hours after injection
  EPO level compared to I′-6: equal or slightly less

## (m2^7,3′-O)Gppp(m^2′-O)ApG [CC413, reference compound]
BALB/c mice [2]
  decrease of hematocrit values from D14: started to decrease at D14
Human PBMCs [3]
  proinflammatory cytokine/chemokine responses compared to m1Ψ-modified mRNA: much higher
BALB/c mice [1]; FIG. 1, CC413 vs CC113
  translational efficiency and biological activity (murine EPO, hematocrit %) of EPO mRNA: significantly better than CC113

## COC1C(OP(=O)([O-])OC[C@H]2O[C@@H](n3ccc(=O)[nH]c3=O)C(O)C2O)[C@@H](COP(=O)(O)OP(=O)(O)OP(=O)(O)OC[C@H]2O[C@@H](n3c[n+](C)c4c(O)nc(N)nc43)C(O)C2OC)O[C@H]1n1cnc2c(N)ncnc21 (stereo partly drawn) [I′-1, m^7G(^3′-OMe)pppA(2′-OMe)pU]
BALB/c mice [2]
  decrease of hematocrit values from D14: not observed
[4]; 0.1 μg/well TransIT-EPO mRNA, 24 hrs
  translation (EPO secretion) compared to CC413: higher translation
[4]; unmodified RNA, each time point after transfection (day 1-6)
  translation compared to CC413: higher translation
Human PBMCs [5]
  toxic effect on cell viability (XTT): no toxic effect
Human PBMCs [3]
  proinflammatory cytokine/chemokine responses compared to m1Ψ-modified mRNA: much higher
Human PBMCs [3]; unmodified mRNA, 24 h
  cytokines/chemokines, compared with CC413: significantly higher
BALB/c mice [1]; U-containing mRNA, each time point
  translational capacity compared with m1Ψ in cap (I′-6) and mRNA: significantly lower
BALB/c mice [1]; regardless of the RNA modification
  translation of ARCA analogs compared to non-ARCA caps CC114 and I′-13: significantly better
